Entries after “also recorded” stand apart in the source; their conditions may differ.
Tests used:
[1] = mice, cited from earlier work; for protection from acetaminophen poisoning, pretreatment: SAMC 100 mg/kg
[2] = Non-enzymatic reaction of AllylSH with H2O2; type: physicochemical
Excerpt: Thiols are known to have various antioxidant properties, including the ability to scavenge (H2O2), although the specific ability of allyl mercaptan in this regard may not have been previously investigated.

13 types of bacteria = details: cited from earlier work
prostaglandin synthase = details: 50 uM/L; cited from earlier work
[3] = cited from earlier work; for Reaction in Blood Half-life / Reaction in Blood Product (moles): in vitro
CYP2D6 = CYP2D6 (Homo sapiens, UniProt P10635); details: cited from earlier work
CYP2D6, sequence (P10635 whole entry): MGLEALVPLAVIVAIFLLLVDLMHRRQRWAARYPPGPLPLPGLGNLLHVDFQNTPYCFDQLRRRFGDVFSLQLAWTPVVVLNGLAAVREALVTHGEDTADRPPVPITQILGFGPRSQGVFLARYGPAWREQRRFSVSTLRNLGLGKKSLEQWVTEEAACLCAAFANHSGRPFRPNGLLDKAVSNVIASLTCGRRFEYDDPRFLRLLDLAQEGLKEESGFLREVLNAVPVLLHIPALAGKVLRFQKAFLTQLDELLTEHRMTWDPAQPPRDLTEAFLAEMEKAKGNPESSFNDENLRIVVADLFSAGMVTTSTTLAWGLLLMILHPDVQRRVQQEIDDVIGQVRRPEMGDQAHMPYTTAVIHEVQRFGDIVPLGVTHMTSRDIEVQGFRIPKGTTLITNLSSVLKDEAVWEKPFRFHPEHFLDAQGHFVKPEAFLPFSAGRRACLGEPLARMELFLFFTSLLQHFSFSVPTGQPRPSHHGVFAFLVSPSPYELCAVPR

[4] = cited from earlier work
uninfected cells = details: 0.01 mM
[5] = chemiluminescense assay; cited from earlier work
cells = details: in vitro exposure; cited from earlier work
SARS coronavirus = assay: microbe, parasite or virus in culture; details: Severe acute respiratory syndrome coronavirus, read-out: reduction in the viability of infected cells
Sendai virus = details: post treatment one hour after infection, measured 24 hours post infection; cited from earlier work
neutrophil influx = details: intravenous, 150 mg/kg; cited from earlier work
[6] = compounds from Allium grayi Regel and Allium fistulosum; cited from earlier work
pKa and ionization = type: physicochemical; details: pH of approximately 7

With `C=CCSC[C@H](N)C(=O)O` [S-allylcysteine] as the compound, how does the “protection from acetaminophen poisoning, pretreatment” value [1] read?
The value was “not nearly as effective”.

Which “reaction with H2O2 at low concentration” value ([2]; initial 10 mM H2O2 and 0.85 mM Allyl-SH, FIG. 1) does the source give for `C=CCS` [AllylSH, AllylThiol] here?
Its value is “can reduce hydrogen peroxide”.

For `O=C(N[C@H](CO)[C@H](O)c1ccc([N+](=O)[O-])cc1)C(Cl)Cl` [Chloramphenicol], which species inhibited (13 types of bacteria; 13 types of bacteria) is on record?
The species inhibited was 12/13.

And the “average zone of inhibition” value (13 types of bacteria)?
Its value is 20 mm.

Which “reaction with H2O2 at high concentration” value ([2]; initial 40 mM H2O2 and 0.85 mM Allyl-SH, FIG. 2) does the source give for `C=CCSSCC=C` [DADS, DiAllylDisulfide] here?
The value was “further oxidized to Allicin”.

What about the “inhibition of prostaglandin synthase” value (prostaglandin synthase) of the same compound?
The value was 69%.

What about the “Reaction in Blood Half-life” value [3] of the same compound?
Its value is 60 min.

What about the “Reaction in Blood Product (moles)” value [3] of the same compound?
The value was “AllylSH (0.8)”.

What about the “activity of the enzymes” value (CYP2D6) of the same compound?
Its value is “up to 121 pmol/min/pmol CYP2D6”.

What about the “conversion of DADS to allicin” value (CYP2D6; in 30 minutes) of the same compound?
Its value is “approximately 30%”.

And the “water solubility in words” value [4]?
Its value is “poor water solubility”.

Which “time for metabolism to allyl-mercaptan” value ([3]; blood cells exposed to allicin) does the source give for `C=CCS[S+]([O-])CC=C` (stereo not shown) [Allicin, DiAllylThioSulfinate] here?
Its value is “less than one minute”.

And the “Reaction in Blood Half-life” value [3]?
Its value is less than 1 min.

And the “Reaction in Blood Product (moles)” value [3]?
The value was “AllylSH (1.6)”.

What does the source list for `C=CCSSC[C@H](N)C(=O)O` [SAMC, S-AllylMercaptoCysteine]?
toxicity to uninfected cells (uninfected cells): no toxicity; antioxidant or pro-oxidant activity [5]: by far the most effective antioxidant; total glutathione level of cells (cells): significantly increase; also recorded: significant increase; protection from acetaminophen poisoning, pretreatment [1]: protect mice; protection from acetaminophen poisoning, post treatment ([1]; single dose 200 mg/kg shortly after exposure): protective; Reaction in Blood Product (moles) [3]: AllylSH (0.8); inhibition at 10 µM (SARS coronavirus): 6%

Which “reduction of the level of infection” value (Sendai virus) does the source give for `N[C@@H](CCC(=O)N[C@@H](CS)C(=O)NCC(=O)O)C(=O)O` [Glutathione] here?
The value was 95%.

Which “IL-1 induced neutrophil influx into lung lavages” value (neutrophil influx) does the source give for `CC(=O)N[C@@H](CS)C(=O)O` [NAC, N-acetylcysteine] here?
The value was “inhibited”.

With `CCCS[S+]([O-])CCC` (stereo not shown) [CH3(CH2)2S˜SO(CH2)2CH3] as the compound, how does the nematicidal activity [6] read?
The nematicidal activity was “most effective compound found”.

For `N[C@@H](CS)C(=O)O` [Cys, Cysteine], which fraction ionized (pKa and ionization) is on record?
Its fraction ionized is “approximately 3%”.
